molecular target: T1, Recombinant human BACE-1 (Homo sapiens, UniProt P56817); test: Assay of β-secretase-inhibiting activity; type: biochemical; conditions: Recombinant human BACE-1 7.4 nM, substrate peptide 18 nM, pH 5.0, 30° C., 3 hours; Table 140; read-out: IC50;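 note: substrate is a peptide carrying biotin and europium cryptate, after the enzyme reaction, Streptavidin-XL665 is added and incubated 1 h at 30 °C before fluorescence reading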
T1 construct: purchased R&D Systems
T1 sequence (P56817 46-501): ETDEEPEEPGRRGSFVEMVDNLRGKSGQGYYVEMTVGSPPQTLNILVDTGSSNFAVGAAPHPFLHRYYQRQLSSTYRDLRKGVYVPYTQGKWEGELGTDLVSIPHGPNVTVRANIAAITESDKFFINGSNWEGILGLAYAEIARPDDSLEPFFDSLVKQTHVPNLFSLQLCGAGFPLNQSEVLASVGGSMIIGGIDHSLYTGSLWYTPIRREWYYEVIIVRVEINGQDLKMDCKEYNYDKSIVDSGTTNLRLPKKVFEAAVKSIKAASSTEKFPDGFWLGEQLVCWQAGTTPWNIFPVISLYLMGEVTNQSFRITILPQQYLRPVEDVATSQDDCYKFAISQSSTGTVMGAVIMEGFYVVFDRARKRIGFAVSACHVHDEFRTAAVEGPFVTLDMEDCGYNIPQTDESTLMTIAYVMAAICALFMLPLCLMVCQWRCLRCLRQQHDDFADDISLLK

| IC50 [nM] | Structure (SMILES) |
| --- | --- |
| 20 | C[C@@]1(c2cc(NC(=O)c3cnc(-c4ccsc4)cn3)ccc2F)CCSC(N)=N1 [Compound 537] |
| 20 | Cc1cnc(C(=O)Nc2cccc([C@]3(C)CCSC(N)=N3)c2)cn1 [Compound 563] |
| 180 | C[C@@]1(c2cc(NC(=O)c3ccc(OCC#CCN)cn3)ccc2F)CCSC(N)=N1 [Compound 566] |
| 30 | Cc1cnn(-c2cnc(C(=O)Nc3ccc(F)c([C@]4(C)CCSC(N)=N4)c3)cn2)c1 [Compound 577] |
| 130 | C[C@@]1(c2cc(NC(=O)c3cnc(-n4ccc(C(F)(F)F)n4)cn3)ccc2F)CCSC(N)=N1 [Compound 580] |
| 280 | Cc1cnc(C(=O)Nc2cc([C@]3(C)CCSC(N)=N3)ccn2)cn1 [Compound 593] |
| 170 | Cc1cnc(C(=O)Nc2cccc([C@]3(C)CCSC(N)=N3)n2)cn1 [Compound 594] |
| 70 | C[C@@]1(c2cncc(NC(=O)c3cnc(Cl)cn3)c2)CCSC(N)=N1 [Compound 597] |
| 30 | C[C@@]1(c2cccc(NC(=O)c3ccc(Cl)cn3)n2)CCSC(N)=N1 [Compound 599] |

Further lines, the molecule ahead of its results:

| Structure (SMILES) | IC50 [nM] |
| --- | --- |
| CC(=O)c1ccc(C(=O)Nc2ccc(F)c([C@]3(C)CCSC(N)=N3)c2)s1 [Compound 530] | 90 |
| Cc1cnc(C(=O)Nc2ccnc([C@]3(C)CCSC(N)=N3)c2)cn1 [Compound 551] | 20 |
| C[C@@]1(c2cc(NC(=O)c3ccc(OCC(N)=O)cn3)ccc2F)CCSC(N)=N1 [Compound 559] | 420 |
| Cc1cc(C)n(-c2cnc(C(=O)Nc3ccc(F)c([C@]4(C)CCSC(N)=N4)c3)cn2)n1 [Compound 579] | 140 |
| Cc1cncc(C(=O)Nc2ccc(F)c([C@]3(C)CCSC(N)=N3)c2)n1 [Compound 585] | 60 |
| COc1cnc(C(=O)Nc2cccc([C@]3(C)CCSC(N)=N3)n2)cn1 [Compound 589] | 60 |
| COCCOc1cnc(C(=O)Nc2cc([C@]3(C)CCSC(N)=N3)ccn2)cn1 [Compound 591] | 100 |
| C[C@@]1(c2ccnc(NC(=O)c3ccc(Cl)cn3)c2)CCSC(N)=N1 [Compound 598] | 30 |
| CC1(C)C[C@@](C)(c2cc(NC(=O)c3coc(Cl)n3)ccc2F)N=C(N)S1 [Compound 645] | 200 |

same assay, conditions: Recombinant human BACE-1 7.4 nM, substrate peptide 18 nM, pH 5.0, 30° C., 3 hours; Table 141; read-out: IC50

| Structure (SMILES) | IC50 [nM] |
| --- | --- |
| Cc1cn2cc(C(=O)Nc3ccc(F)c([C@]4(C)CCSC(N)=N4)c3)ncc2n1 [Compound 652] | 60 |

same assay, conditions: Recombinant human BACE-1 7.4 nM, substrate peptide 18 nM, pH 5.0, 30° C., 3 hours; time-resolved fluorescence ratio 665/620; read-out: IC50 values (50% inhibitory concentration against the enzymatic activity)

| IC50 [nM] | Structure (SMILES) |
| --- | --- |
| ≤ 1000 | Cc1cscc1-c1cnc(C(=O)Nc2ccc(F)c([C@]3(C)CCSC(N)=N3)c2)cn1 [Compound 541] |
| ≤ 1000 | COc1cnc(C(=O)Nc2cncc([C@]3(C)CCSC(N)=N3)c2)cn1 [Compound 547] |
| ≤ 1000 | COCCOc1cnc(C(=O)Nc2ccnc([C@]3(C)CCSC(N)=N3)c2)cn1 [Compound 549] |
| ≤ 1000 | Cn1ccnc1C(=O)Nc1ccc(F)c([C@]2(C)CCSC(N)=N2)c1 [Compound 553] |
| ≤ 1000 | COc1cnc(C(=O)Nc2cncc([C@]3(C)CCSC(N)=N3)c2)c(N)n1 [Compound 555] |
| ≤ 1000 | COc1cnc(C(=O)Nc2cncc([C@]3(C)CC(C)(C)SC(N)=N3)c2)c(N)n1 [Compound 558] |
| ≤ 1000 | C[C@@]1(c2cc(NC(=O)c3ccc(OCC#CCO)cn3)ccc2F)CCSC(N)=N1 [Compound 567] |
| ≤ 1000 | CC1(C)C[C@@](C)(c2cncc(NC(=O)c3cnc(OCCF)cn3)c2)N=C(N)S1 [Compound 568] |
| ≤ 1000 | CNCC#CCOc1ccc(C(=O)Nc2ccc(F)c([C@]3(C)CCSC(N)=N3)c2)nc1 [Compound 569] |
| ≤ 1000 | C[C@@]1(c2cncc(NC(=O)c3ncc(Cl)cc3Cl)c2)CCSC(N)=N1 [Compound 572] |
| ≤ 1000 | CC1(C)C[C@@](C)(c2cncc(NC(=O)c3ncc(C(F)(F)F)cc3Cl)c2)N=C(N)S1 [Compound 575] |
| ≤ 1000 | Cc1cn(-c2cnc(C(=O)Nc3ccc(F)c([C@]4(C)CCSC(N)=N4)c3)cn2)cn1 [Compound 578] |
| ≤ 1000 | COc1cnc(C(=O)Nc2cnc(Cl)c([C@]3(C)CCSC(N)=N3)c2)cn1 [Compound 582] |
| ≤ 1000 | CC#CCOc1cnc(C(=O)Nc2cncc([C@]3(C)CCSC(N)=N3)c2)cn1 [Compound 595] |
| ≤ 1000 | COc1cnc(C(=O)Nc2ccc(F)c([C@]3(C)CC(C)(C)SC(N)=N3)c2)cn1 [Compound 600] |
| ≤ 1000 | COc1cnc(C(=O)Nc2ccc(F)c([C@]3(C)CCSC(N)=N3)c2)c(N)n1 [Compound 603] |
| ≤ 1000 | Cc1cnc(C(=O)Nc2ccc(F)c([C@]3(C)CC(C)(C)SC(N)=N3)c2)cn1 [Compound 606] |
| ≤ 1000 | Cc1nc(C(=O)Nc2ccc(F)c([C@]3(C)CC(C)(C)SC(N)=N3)c2)co1 [Compound 609] |
| ≤ 1000 | CC1(C)C[C@@](C)(c2cc(NC(=O)c3ncc(C(F)(F)F)cc3Cl)ccc2F)N=C(N)S1 [Compound 644] |
| ≤ 1000 | C[C@@]1(c2cncc(NC(=O)c3ncc(C(F)(F)F)cc3F)c2)CCSC(N)=N1 [Compound 646] |

Second part, the molecule before the results:

| Structure (SMILES) | IC50 [nM] |
| --- | --- |
| Cc1nc(-c2ccc(C(=O)Nc3ccc(F)c([C@]4(C)CCSC(N)=N4)c3)cc2)no1 [Compound 531] | ≤ 1000 |
| Cc1ccc(C(=O)Nc2ccc(F)c([C@]3(C)CCSC(N)=N3)c2)s1 [Compound 532] | ≤ 1000 |
| Cc1csc(C(=O)Nc2ccc(F)c([C@]3(C)CCSC(N)=N3)c2)c1 [Compound 533] | ≤ 1000 |
| C[C@@]1(c2cc(NC(=O)c3cc4ccccc4[nH]3)ccc2F)CCSC(N)=N1 [Compound 536] | ≤ 1000 |
| C[C@@]1(c2cc(NC(=O)c3cc4cccnc4s3)ccc2F)CCSC(N)=N1 [Compound 539] | ≤ 1000 |
| C[C@@]1(c2cc(NC(=O)c3cc4ccccc4o3)ccc2F)CCSC(N)=N1 [Compound 540] | ≤ 1000 |
| C[C@@]1(c2cc(NC(=O)c3cc4ccccc4s3)ccc2F)CCSC(N)=N1 [Compound 545] | ≤ 1000 |
| C[C@@]1(c2cc(NC(=O)c3cc4cc(C(F)(F)F)ccc4s3)ccc2F)CCSC(N)=N1 [Compound 546] | ≤ 1000 |
| COc1cnc(C(=O)Nc2ccnc([C@]3(C)CCSC(N)=N3)c2)cn1 [Compound 548] | ≤ 1000 |
| Cc1cnc(C(=O)Nc2cncc([C@]3(C)CCSC(N)=N3)c2)cn1 [Compound 550] | ≤ 1000 |
| C[C@@]1(c2cc(NC(=O)c3ccc(Cl)cn3)ccn2)CCSC(N)=N1 [Compound 552] | ≤ 1000 |
| Cc1nc(C(=O)Nc2ccc(F)c([C@]3(C)CCSC(N)=N3)c2)c(C)o1 [Compound 554] | ≤ 1000 |
| C#CCOc1cnc(C(=O)Nc2cncc([C@]3(C)CCSC(N)=N3)c2)cn1 [Compound 556] | ≤ 1000 |
| C[C@@]1(c2cncc(NC(=O)c3cnc(OCCF)cn3)c2)CCSC(N)=N1 [Compound 557] | ≤ 1000 |
| COc1cnc(C(=O)Nc2cncc([C@]3(C)CC(C)(C)SC(N)=N3)c2)cn1 [Compound 560] | ≤ 1000 |
| C#CCOc1cnc(C(=O)Nc2cncc([C@]3(C)CC(C)(C)SC(N)=N3)c2)cn1 [Compound 561] | ≤ 1000 |
| COCCOc1cnc(C(=O)Nc2cncc([C@]3(C)CC(C)(C)SC(N)=N3)c2)cn1 [Compound 562] | ≤ 1000 |
| COc1cnc(C(=O)Nc2cncc([C@]3(C)CCSC(N)=N3)c2)c(C)c1 [Compound 564] | ≤ 1000 |
| C[C@@]1(c2cccc(NC(=O)c3cnc(OCCF)cn3)c2)CCSC(N)=N1 [Compound 565] | ≤ 1000 |
| CN(C)CC#CCOc1ccc(C(=O)Nc2ccc(F)c([C@]3(C)CCSC(N)=N3)c2)nc1 [Compound 570] | ≤ 1000 |

| Structure (SMILES) | IC50 [nM] |
| --- | --- |
| COCC#CCOc1ccc(C(=O)Nc2ccc(F)c([C@]3(C)CCSC(N)=N3)c2)nc1 [Compound 571] | ≤ 1000 |
| C[C@@]1(c2cc(NC(=O)c3ccc(OCC#CCCl)cn3)ccc2F)CCSC(N)=N1 [Compound 573] | ≤ 1000 |
| C[C@@]1(c2cncc(NC(=O)c3ncc(C(F)(F)F)cc3Cl)c2)CCSC(N)=N1 [Compound 574] | ≤ 1000 |
| C[C@@]1(c2cncc(NC(=O)c3ccc(Cl)cn3)n2)CCSC(N)=N1 [Compound 581] | ≤ 1000 |
| COCCOc1cnc(C(=O)Nc2cnc(Cl)c([C@]3(C)CCSC(N)=N3)c2)cn1 [Compound 583] | ≤ 1000 |
| Cc1nc(C(=O)Nc2cnc(Cl)c([C@]3(C)CCSC(N)=N3)c2)co1 [Compound 584] | ≤ 1000 |
| Cc1nc(C(=O)Nc2cnc(Cl)c([C@]3(C)CCSC(N)=N3)c2)c(C)o1 [Compound 586] | ≤ 1000 |
| C[C@@]1(c2cc(NC(=O)c3cccc(F)n3)ccc2F)CCSC(N)=N1 [Compound 587] | ≤ 1000 |
| COCCOc1cnc(C(=O)Nc2cncc([C@]3(C)CCSC(N)=N3)c2)cn1 [Compound 590] | ≤ 1000 |
| COCCOc1cnc(C(=O)Nc2cccc([C@]3(C)CCSC(N)=N3)n2)cn1 [Compound 592] | ≤ 1000 |
| CC#CCOc1cnc(C(=O)Nc2cc([C@]3(C)CCSC(N)=N3)ccn2)cn1 [Compound 596] | ≤ 1000 |
| COCCOc1cnc(C(=O)Nc2ccc(F)c([C@]3(C)CC(C)(C)SC(N)=N3)c2)cn1 [Compound 601] | ≤ 1000 |
| COc1cnc(C(=O)Nc2ccc(F)c([C@]3(C)CCSC(N)=N3)c2)c(C)c1 [Compound 602] | ≤ 1000 |
| CC1(C)C[C@@](C)(c2cc(NC(=O)c3cnc(OCCF)cn3)ccc2F)N=C(N)S1 [Compound 605] | ≤ 1000 |
| Cc1nc(C(=O)Nc2ccnc([C@]3(C)CCSC(N)=N3)c2)co1 [Compound 612] | ≤ 1000 |
| C[C@@]1(c2cc(NC(=O)c3ncccc3F)ccn2)CCSC(N)=N1 [Compound 613] | ≤ 1000 |
| COc1cnc(C(=O)Nc2ccnc([C@]3(C)CC(C)(C)SC(N)=N3)c2)cn1 [Compound 637] | ≤ 1000 |
| COc1cnc(C(=O)Nc2ccc(F)c([C@@]3(C)N=C(N)SCC3(C)C)c2)cn1 [Compound 647] | ≤ 1000 |
| Cc1cnc(C(=O)Nc2ccc(F)c([C@@]3(C)N=C(N)SCC3(C)C)c2)cn1 [Compound 649] | ≤ 1000 |
| C[C@@]1(c2cc(NC(=O)c3cn4cc(C(F)(F)F)nc4cn3)ccc2F)CCSC(N)=N1 [Compound 651] | ≤ 1000 |

— patent US20100075957A1, “AMINODIHYDROTHIAZINE DERIVATIVES SUBSTITUTED WITH A CYCLIC GROUP” (SHIONOGI & CO., LTD., priority 2007, published 2010)
